Laboratory results taken from ChEMBL document CHEMBL1201862, “PubChem BioAssay data set” (2004).
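Test compounds were applied to cells in 96-well plates for 48 hours at 5 doses. Here, GI50 denotes the concentration required for 50% inhibition of growth.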 Calls of active or inactive are those of the source. Cut-off read from the data, not from the text of the source: active = GI50 up to about 1.1 µM and inactive = higher.

Columns and labels:
Experiment in all cases: NCI-60 cell line screen, 48 h
[1] = system: U-251
[2] = system: OVCAR-5
[3] = system: HOP-18
[4] = system: NCI-H522
[5] = system: EKVX
[6] = system: M19-MEL
[7] = system: K562
[8] = system: CCRF-CEM
[9] = system: CAKI-1
[10] = system: DMS-273
[11] = system: SNB-75
[12] = system: A498
[13] = system: HOP-62
[14] = system: A549
[15] = system: UO-31
[16] = system: SNB-78
[17] = system: Malme-3M
[18] = system: HCC 2998
[19] = system: NCI-H226
[20] = system: SK-MEL-2
[21] = system: SF-268
[22] = system: HOP-92
[23] = system: DLD-1
[24] = system: KM12
[25] = system: OVCAR-8
[26] = system: SK-OV-3
[27] = system: UACC-257
[28] = system: UACC-62
[29] = system: LOX IMVI
[30] = system: XF498
[31] = system: MCF7
[32] = system: RPMI-8226
[33] = system: SK-MEL-5
[34] = system: HT-29
[35] = system: NCI-H460
[36] = system: SF-295
[37] = system: SW-620
[38] = system: MOLT-4
[39] = system: HCT-15
[40] = system: OVCAR-3
[41] = system: HL-60
[42] = system: NCI-H23
[43] = system: OVCAR-4
[44] = system: IGROV-1
[45] = system: NCI/ADR-RES
[46] = system: KM-20L2
[47] = system: COLO 205
[48] = system: SN12C
[49] = system: HCT-116
[50] = system: SK-MEL-28
[51] = system: SF-539
[52] = system: SNB-19
[53] = system: RXF 393

With `S=C(NCCCCCCNC(=S)Nc1c2ccccc2nc2ccccc12)Nc1c2ccccc2nc2ccccc12` the GI50 [1] was > 91.8 µM (inactive), the GI50 [2] was > 84.1 µM (inactive) and the GI50 [3] was > 100 µM (inactive). The GI50 [4] was 64.6 µM (inactive), the GI50 [5] was > 100 µM (inactive) and the GI50 [6] was > 100 µM (inactive). The GI50 [7] was 51.9 µM (inactive), the GI50 [8] was 63 µM (inactive) and the GI50 [9] was > 100 µM (inactive). For the same molecule, the GI50 [10] was 65.9 µM (inactive), the GI50 [11] was 32.9 µM (inactive) and the GI50 [12] was > 91.8 µM (inactive). The GI50 [13] was > 89.3 µM (inactive), the GI50 [14] was 87.5 µM (inactive) and the GI50 [15] was > 86.3 µM (inactive). The GI50 [16] was > 87.7 µM (inactive), the GI50 [17] was > 100 µM (inactive) and the GI50 [18] was > 96.2 µM (inactive). For the same molecule, the GI50 [19] was 10.8 µM (inactive), the GI50 [20] was > 100 µM (inactive) and the GI50 [21] was > 100 µM (inactive). The GI50 [22] was 52.4 µM (inactive), the GI50 [23] was 70.1 µM (inactive) and the GI50 [24] was 10.9 µM (inactive). For the same molecule, the GI50 [25] was 89.9 µM (inactive), the GI50 [26] was > 100 µM (inactive) and the GI50 [27] was > 90.8 µM (inactive). For the same molecule, the GI50 [28] was > 100 µM (inactive), the GI50 [29] was 72.4 µM (inactive) and the GI50 [30] was > 89.9 µM (inactive). For the same molecule, the GI50 [31] was 49 µM (inactive), the GI50 [32] was 95.5 µM (inactive) and the GI50 [33] was > 93.1 µM (inactive). For the same molecule, the GI50 [34] was 54.5 µM (inactive), the GI50 [35] was 43.1 µM (inactive) and the GI50 [36] was 68.4 µM (inactive). For the same molecule, the GI50 [37] was 52.8 µM (inactive), the GI50 [38] was 32.4 µM (inactive) and the GI50 [39] was 76.4 µM. For the same molecule, the GI50 [40] was > 90.2 µM (inactive), the GI50 [41] was 77.1 µM (inactive) and the GI50 [42] was > 100 µM (inactive). The GI50 [43] was 70 µM (inactive), the GI50 [44] was > 81.5 µM (inactive) and the GI50 [45] was > 88.1 µM (inactive). The GI50 [46] was 79.4 µM (inactive), the GI50 [47] was 50.5 µM (inactive) and the GI50 [48] was > 83.8 µM (inactive). The GI50 [49] was 50.6 µM (inactive), the GI50 [50] was > 100 µM (inactive) and the GI50 [51] was 70.1 µM (inactive). The GI50 [52] was > 83 µM (inactive) and the GI50 [53] was > 100 µM (inactive).
